# Assay results reported in patent US20250250303A1 (THE TRUSTEES OF COLUMBIA UNIVERSITY IN THE CITY OF NEW YORK, priority 2022, published 2025).
# Bridge positions count the residues as written; N and C are the ends. Peptide text beside a SMILES is read from it.
# Legend:
# [1] = molecular target: T1, IR F497A (Homo sapiens, UniProt P06213, F524A); experiment: IR activation assay in 293 FT cells, IR F497A mutant; assay type: cell-based; conditions: 10 min
# T1 construct: expressed in transfected cells; host or cells: 293 FT cells
# T1 sequence (P06213 28-1370 isoform P06213-2 F524A limits assumed): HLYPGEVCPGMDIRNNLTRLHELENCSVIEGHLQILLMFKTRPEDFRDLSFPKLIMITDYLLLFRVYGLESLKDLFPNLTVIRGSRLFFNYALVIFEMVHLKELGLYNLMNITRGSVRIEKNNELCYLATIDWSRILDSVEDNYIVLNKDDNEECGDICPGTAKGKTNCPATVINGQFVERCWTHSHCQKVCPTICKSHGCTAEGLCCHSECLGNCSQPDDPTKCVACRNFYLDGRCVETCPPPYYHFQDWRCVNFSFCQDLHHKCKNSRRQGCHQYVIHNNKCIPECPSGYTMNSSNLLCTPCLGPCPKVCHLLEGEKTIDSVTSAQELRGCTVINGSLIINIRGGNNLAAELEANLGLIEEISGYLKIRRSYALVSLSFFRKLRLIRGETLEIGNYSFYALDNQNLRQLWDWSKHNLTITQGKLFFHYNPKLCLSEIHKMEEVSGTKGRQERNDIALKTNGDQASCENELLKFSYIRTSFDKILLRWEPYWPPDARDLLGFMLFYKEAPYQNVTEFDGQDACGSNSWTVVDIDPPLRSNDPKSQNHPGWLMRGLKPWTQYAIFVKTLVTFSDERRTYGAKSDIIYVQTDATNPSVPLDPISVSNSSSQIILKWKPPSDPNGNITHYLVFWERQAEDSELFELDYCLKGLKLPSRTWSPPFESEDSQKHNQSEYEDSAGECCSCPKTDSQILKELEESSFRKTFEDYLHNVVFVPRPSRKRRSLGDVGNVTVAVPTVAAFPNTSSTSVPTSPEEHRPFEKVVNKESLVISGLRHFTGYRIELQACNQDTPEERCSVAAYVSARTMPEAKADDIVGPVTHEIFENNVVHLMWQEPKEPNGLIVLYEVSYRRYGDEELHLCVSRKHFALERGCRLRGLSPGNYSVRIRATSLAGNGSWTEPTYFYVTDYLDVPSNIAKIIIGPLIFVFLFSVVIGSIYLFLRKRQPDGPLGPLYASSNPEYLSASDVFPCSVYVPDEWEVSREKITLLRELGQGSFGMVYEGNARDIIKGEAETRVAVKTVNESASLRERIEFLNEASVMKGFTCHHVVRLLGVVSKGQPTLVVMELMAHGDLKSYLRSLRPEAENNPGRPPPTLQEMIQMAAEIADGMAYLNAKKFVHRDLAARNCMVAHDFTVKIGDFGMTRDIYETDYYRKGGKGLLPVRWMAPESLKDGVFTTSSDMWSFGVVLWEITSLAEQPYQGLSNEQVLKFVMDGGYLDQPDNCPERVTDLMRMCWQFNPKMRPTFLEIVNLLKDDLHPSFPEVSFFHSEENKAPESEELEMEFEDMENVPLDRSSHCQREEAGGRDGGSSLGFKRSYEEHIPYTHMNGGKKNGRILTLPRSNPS
# T1 sequence (P06213 763-1382 partner limits assumed): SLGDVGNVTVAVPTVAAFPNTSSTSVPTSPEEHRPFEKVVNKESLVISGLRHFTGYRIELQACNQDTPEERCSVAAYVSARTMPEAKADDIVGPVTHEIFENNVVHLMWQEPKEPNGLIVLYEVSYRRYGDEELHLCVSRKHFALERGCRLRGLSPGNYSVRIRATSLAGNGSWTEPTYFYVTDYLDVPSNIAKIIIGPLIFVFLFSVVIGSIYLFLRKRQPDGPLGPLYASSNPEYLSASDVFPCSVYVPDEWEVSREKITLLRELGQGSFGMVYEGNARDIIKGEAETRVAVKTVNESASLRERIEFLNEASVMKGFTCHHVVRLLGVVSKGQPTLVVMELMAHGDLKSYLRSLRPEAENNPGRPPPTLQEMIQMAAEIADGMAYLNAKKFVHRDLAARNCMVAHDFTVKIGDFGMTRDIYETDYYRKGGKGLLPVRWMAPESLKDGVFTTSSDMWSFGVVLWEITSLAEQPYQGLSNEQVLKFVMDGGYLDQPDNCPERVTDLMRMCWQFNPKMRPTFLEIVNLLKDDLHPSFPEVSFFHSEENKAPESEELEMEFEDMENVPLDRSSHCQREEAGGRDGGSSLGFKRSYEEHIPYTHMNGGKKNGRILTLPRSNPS
# [2] = molecular target: T2, IR R14W (Homo sapiens, UniProt P06213, R41W); experiment: IR activation assay in 293 FT cells, IR R14W mutant; assay type: cell-based; conditions: 10 min
# T2 construct: expressed in transfected cells; host or cells: 293 FT cells
# T2 sequence (P06213 28-1370 isoform P06213-2 R41W limits assumed): as the sequence (P06213 28-1370 isoform P06213-2 F524A limits assumed) above, with R14W, A497F counted along it
# T2 sequence (P06213 763-1382 partner limits assumed): as the sequence (P06213 763-1382 partner limits assumed) above
# [3] = tested on: CAL33; experiment: Cancer cell proliferation, CAL33; assay type: cell-based
# [4] = Chronic treatment by osmotic minipump; assay type: in vivo, mice
# Source text: 2-month-old male mice were implanted with osmotic minipump releasing Humulin (0.2 U/day), S597 (0.3 U/day), or S597-S20D (0.3 U/day). […] Hepes, N=7; Humulin, N=8; S597, N=7; S597-S20D, N=4. […] Hepes, N=7; Humulin, N=8; S597, N=9; S597-S20D, N=4. Two-way ANOVA followed by Tukey's multiple comparisons test. […] Mean±SEM. Hepes, N=8; Humulin, N=7; S597, N=9; S597-S20D, N=5. […] Hepes, N=4; Humulin and S597 analogs, N=5. two-tailed Student's t-test. All graphs show Mean±SEM.
# To examine the long-term effects of S597 in vivo, C57BL/6J WT mice were implanted with osmotic minipumps releasing either HEPES, Humulin, or mimetics. […] Consistent with previous work, chronic treatment of Humulin increased body weight (FIGS. 11E, 11F).
# [5] = molecular target: T3, IR F96A (Homo sapiens, UniProt P06213, F123A); experiment: IR activation assay in 293 FT cells, IR F96A mutant; assay type: cell-based; conditions: 10 nM for 10 min
# T3 construct: expressed in transfected cells; host or cells: 293 FT cells
# T3 sequence (P06213 28-1370 isoform P06213-2 F123A limits assumed): as the sequence (P06213 28-1370 isoform P06213-2 F524A limits assumed) above, with F96A, A497F counted along it
# T3 sequence (P06213 763-1382 partner limits assumed): as the sequence (P06213 763-1382 partner limits assumed) above
# [6] = molecular target: T4, IR E697A (Homo sapiens, UniProt P06213, E724A); experiment: IR activation assay in 293 FT cells, IR E697A mutant; assay type: cell-based; conditions: 10 nM for 10 min
# T4 construct: expressed in transfected cells; host or cells: 293 FT cells
# T4 sequence (P06213 28-1370 isoform P06213-2 E724A limits assumed): as the sequence (P06213 28-1370 isoform P06213-2 F524A limits assumed) above, with A497F, E697A counted along it
# T4 sequence (P06213 763-1382 partner limits assumed): as the sequence (P06213 763-1382 partner limits assumed) above
# [7] = molecular target: T5, IR R345A (Homo sapiens, UniProt P06213, R372A); experiment: IR activation assay in 293 FT cells, IR R345A mutant; assay type: cell-based; conditions: 10 nM for 10 min
# T5 construct: expressed in transfected cells; host or cells: 293 FT cells
# T5 sequence (P06213 28-1370 isoform P06213-2 R372A limits assumed): as the sequence (P06213 28-1370 isoform P06213-2 F524A limits assumed) above, with R345A, A497F counted along it
# T5 sequence (P06213 763-1382 partner limits assumed): as the sequence (P06213 763-1382 partner limits assumed) above
# [8] = tested on: CAL33; experiment: IR signaling in cancer cells, CAL33; assay type: cell-based; conditions: 10, 100 or 300 nM for 10 minutes
# [9] = tested on: IR signaling; experiment: IR signaling in primary mouse hepatocytes; assay type: cell-based
# Description: Primary hepatocytes were isolated from 2-month-old male mice with a standard two-step collagenase perfusion procedure as described earlier with some modifications. […] After 1-2 sec upon appearance of white spots in the liver, the portal vein was cut with scissors to wash out blood, and then the liver was perfused with 30 ml of Liver Digest Medium (Thermo Scientific, Cat. #17703034). Dissected liver was gently washed with low glucose DMEM and transferred to sterile culture dish containing 15 ml Liver Digest Medium. The isolated liver cells were filtered through the 70 μm cell strainer into a 50 ml tube. After centrifuge at 50 g for 5 min at 4° C., cells were washed with cold low glucose DMEM three times. […] After 2 hr., the medium was changed to serum free low-glucose DMEM.
# The cells were incubated with the lysis buffer B [50 mM Hepes pH 7.4, 150 mM NaCl, 10% Glycerol, 1% Triton X-100, 1 mM EDTA, 100 mM sodium fluoride, 2 mM sodium orthovanadate, 20 mM sodium pyrophosphate, 0.5 mM dithiothreitol (DTT), 2 mM phenylmethylsulfonyl fluoride (PMSF)] supplemented with complete Protease Inhibitor Cocktail (Roche), PhosSTOP (Sigma), and 25 U/ml turbo nuclease (Accelagen) on ice for 1 hr. After centrifuge at 20,817 g at 4° C. for 10 min, the concentrations of cell lysate were measured using Micro BCA Protein Assay Kit (Thermo Scientific). About 50-60 μg total proteins were analyzed by SDS-PAGE and quantitative Western blotting. The following antibodies were purchased from commercial sources: Anti-IR-pY1150/1151 (WB, 1:1000; 19H6; labeled as pY IR, Cat. #3024), anti-AKT (WB, 1:1000; 40D4, Cat. #2920), anti-pS473 AKT (WB, 1:1000; D9E, Cat. #4060), anti-ERK1/2 (WB, 1:1000; L34F12, Cat. #4696), anti-pERK1/2 (WB, […]; 197G2, Cat. #4377), anti-IRS1-pS616 (WB, 1:1000; C15H5, Cell Signaling, Cat. #3203); anti-IRS1 (WB, 1:1000; A301-158A, Bethyl Laboratory); anti-IR (WB, 1:500, CT-3, Santa Cruz; labeled as IR for primary hepatocytes and MEFs, Cat. #sc-57342); anti-IR (WB, 1:1000; EPR23566-103; labeled as IR for FIG. 31, ab278100, Abcam); anti-Myc (WB, 1:2000; 9E10, Cat. #11667149001, Roche; labeled as IR for 293 FT cells). For quantitative western blots, anti-rabbit immunoglobulin G (IgG) (H+L) (WB, 1:5000; Dylight 800 conjugates, Cat. #5151) and anti-mouse IgG (H+L) (WB, 1:5000; Dylight 680 conjugates, Cat. #5470) (Cell Signaling) were used as secondary antibodies. The membranes were scanned with the Odyssey Infrared Imaging System (Li—COR, Lincoln, NE).
# [10] = tested on: MCF7; experiment: IR signaling in cancer cells, MCF7; assay type: cell-based; conditions: 10, 100 or 300 nM for 10 minutes
compound,measurement,setting,value
CC[C@H](C)[C@H](NC(=O)[C@H](CCC(N)=O)NC(=O)[C@H](C)NC(=O)[C@H](Cc1c[nH]c2ccccc12)NC(=O)[C@H](CCC(=O)O)NC(=O)[C@H](CCC(=O)O)NC(=O)[C@H](CCC(=O)O)NC(=O)[C@H](CC(C)C)NC(=O)[C@H](CO)NC(C)=O)C(=O)N[C@@H](CCC(=O)O)C(=O)N[C@H]1CSSC[C@@H](C(=O)N2CCC[C@H]2C(=O)N[C@@H](CO)C(=O)N[C@@H](CCC(=O)O)C(=O)N[C@@H](CO)C(=O)N[C@@H](Cc2ccccc2)C(=O)N[C@@H](Cc2ccc(O)cc2)C(=O)N[C@@H](CC(=O)O)C(=O)N[C@@H](Cc2c[nH]c3ccccc23)C(=O)N[C@@H](Cc2ccccc2)C(=O)N[C@@H](CCC(=O)O)C(=O)N[C@@H](CCCNC(=N)N)C(=O)N[C@@H](CCC(N)=O)C(=O)N[C@@H](CC(C)C)C(N)=O)NC(=O)CNC(=O)[C@H](CCCNC(=N)N)NC(=O)CNC(=O)[C@H](Cc2ccc(O)cc2)NC(=O)[C@H](C(C)C)NC(=O)[C@H](CCC(=O)O)NC1=O [S597] (Ac-SLEEEWAQIECEVYGRGCPSESFYDWFERQL-NH2; disulfide 11-18),IR activation (pY IR),[1],fully activated
same,IR activation (pY IR),[2],fully activated
same,cell proliferation,[3],did not promote
same,body weight gain,[4],gained less than control mice
same,weight gain and fat mass,"[4]; FIG. 11, preliminary data",reduces weight gain and fat mass relative to insulin
same,IR activation (pY IR),[5],great deficiency
same,IR activation (pY IR),[6],fully activated
same,IR activation (pY IR),[7],fully activated
same,IR signaling,[8],failed to activate
same,pAKT,[9],increased
same,pERK,[9],increased
same,pY IR,[9],increased
same,IR signaling,[10],failed to activate
